Some results are limits rather than exact numbers.

Test [1] has as its target T1, kappa opioid receptor (KOR) (Homo sapiens, UniProt P41145).
T1 construct: host or cells: U2OS (Tango OPRK1-bla U2OS)
Description: OPRKappa 1 Tango B-Arrestin Assay, antagonist mode (Tango OPRK1-bla U2OS cells, U50488 EC80 challenge). The test is classed as cell-based. Particulars: for Selectivity (MOR/KOR): Kappa selectivity, MOR IC50 / KOR IC50; for IC50: antagonist mode, Tango OPRK1-bla U2OS cells, 6 nM U50488 challenge. The gist of the method:
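Tango OPRK1-bla U2OS cells, β-arrestin recruitment read as β-lactamase FRET (CCF4-AM, 460/590 nm emission). Compounds, 10-point 1:3 series from nominal 10 µM in quadruplicate, preincubated 30 min at 37 °C, then challenged with U50488 at 6 nM final (EC80) for 4 h; percent inhibition from median ratio.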

The next test addresses T2, mu opioid receptor (MOR) (Homo sapiens, UniProt P35372).
T2 construct: host or cells: U2OS (Discover X OPRMu1-U2OS, PathHunter)
Description: OPRMu1 Discover X β-arrestin Assay, antagonist mode (U2OS cells, DAMGO EC80 challenge). The format is cell-based. The method in brief: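 PathHunter U2OS cells with β-gal fragment-complementation readout for β-arrestin recruitment to OPRMu1. Cells were preincubated with compound (10-point, 1:3 series from nominal 10 micromolar) for 30 min at 37 °C, then challenged with 303 nM DAMGO (EC80) for 3 h. Luminescence gave percent inhibition.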

T1 sequence (P41145 whole entry): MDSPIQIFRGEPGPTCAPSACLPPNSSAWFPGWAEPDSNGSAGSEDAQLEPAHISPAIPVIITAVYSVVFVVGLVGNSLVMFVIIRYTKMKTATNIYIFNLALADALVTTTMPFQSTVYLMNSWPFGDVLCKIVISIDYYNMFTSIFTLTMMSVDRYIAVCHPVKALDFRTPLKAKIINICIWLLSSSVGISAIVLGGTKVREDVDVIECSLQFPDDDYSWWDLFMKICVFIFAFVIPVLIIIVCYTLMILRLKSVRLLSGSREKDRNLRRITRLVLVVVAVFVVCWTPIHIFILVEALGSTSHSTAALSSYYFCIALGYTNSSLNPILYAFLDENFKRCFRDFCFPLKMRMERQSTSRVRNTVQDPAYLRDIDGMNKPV
T2 sequence (P35372 whole entry): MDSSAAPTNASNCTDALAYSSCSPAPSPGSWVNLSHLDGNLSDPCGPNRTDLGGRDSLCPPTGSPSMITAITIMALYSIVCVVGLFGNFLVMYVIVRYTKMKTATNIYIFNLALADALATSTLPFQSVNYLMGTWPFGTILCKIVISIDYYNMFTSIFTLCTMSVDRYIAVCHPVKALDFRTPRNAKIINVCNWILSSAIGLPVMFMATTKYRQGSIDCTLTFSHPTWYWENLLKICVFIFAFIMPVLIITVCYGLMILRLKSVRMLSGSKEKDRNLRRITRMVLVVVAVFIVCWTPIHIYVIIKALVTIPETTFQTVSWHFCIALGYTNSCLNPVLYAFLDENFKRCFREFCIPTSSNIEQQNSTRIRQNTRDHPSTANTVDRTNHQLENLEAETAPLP

In the case of `CCc1cc(F)c2nc(N3CCC(N[C@H]4COC[C@H]4F)CC3)c(-c3ccn(C)n3)c(C)c2c1` [Compound 72, 1-(6-ethyl-8-fluoro-4-methyl-3-(1-methyl-1H-pyrazol-3-yl)quinolin-2-yl)-N-((3S,4S)-4-fluorotetrahydrofuran-3-yl)piperidin-4-amine], in test [1], the “Selectivity (MOR/KOR)” value is “++ (between 10- and 100-fold selectivity)”; the 50% inhibitory concentration (IC50) lay in the range of 10 to 100 nM. Further, the IC50 against mu opioid receptor (MOR) is more than 1000 nM.

For the molecule `CCc1cc(F)c2nc(N3CCC(N[C@H]4CCCC(F)(F)C4)CC3)c(-c3ccn(C)n3)c(C)c2c1` [Compound 73, (S)—N-(3,3-difluorocyclohexyl)-1-(6-ethyl-8-fluoro-4-methyl-3-(1-methyl-1H-pyrazol-3-yl)quinolin-2-yl)piperidin-4-amine], the “Selectivity (MOR/KOR)” value in test [1] was “++ (between 10- and 100-fold selectivity)”. For the same molecule, the half-maximal inhibitory concentration (IC50) was 1 to 10 nM in test [1] and 100 to 1000 nM against mu opioid receptor (MOR).

In the case of `CCc1cc(F)c2nc(N3CCC(N[C@@H]4CCCC(F)(F)C4)CC3)c(-c3ccn(C)n3)c(C)c2c1` [Compound 74], the “Selectivity (MOR/KOR)” value in test [1] was “++ (between 10- and 100-fold selectivity)”. For the same molecule, the IC50 in test [1] was 1 to 10 nM; on mu opioid receptor (MOR), 100 to 1000 nM.

`CCc1cc(C#N)c2nc(N3CCC(N[C@H]4CCOC[C@@H]4F)CC3)c(-c3ccn(C)n3)c(C)c2c1` [Compound 77]: the “Selectivity (MOR/KOR)” value in test [1] is recorded as “+++ (between 100- to 1000-fold selective)”. Further, the IC50 in test [1] is less than 1 nM; against mu opioid receptor (MOR) it was 100 to 1000 nM.

Turning to `CCc1cc(C#N)c2nc(N3CCC(N[C@@H]4CCOC[C@@H]4F)CC3)c(-c3ccn(C)n3)c(C)c2c1` [Compound 78], in test [1], the “Selectivity (MOR/KOR)” value was “++ (between 10- and 100-fold selectivity)”; the IC50 is less than 1 nM. This molecule also returned an IC50 at mu opioid receptor (MOR) of 10 to 100 nM.

Consider `CCc1cc(C#N)c2nc(N3CCC(NC4CC(F)(F)C4)CC3)c(-c3ccn(C)n3)c(C)c2c1` [Compound 79], for which, in test [1], the “Selectivity (MOR/KOR)” value is given as “+++ (between 100- to 1000-fold selective)”. The half-maximal inhibitory concentration (IC50) was 1 to 10 nM in test [1] and more than 1000 nM against mu opioid receptor (MOR).

For `CCc1cc(C#N)c2nc(N3CCC(NCC4(F)CCOCC4)CC3)c(-c3ccn(C)n3)c(C)c2c1` [Compound 80], the “Selectivity (MOR/KOR)” value in test [1] is “++ (between 10- and 100-fold selectivity)”. In addition, the IC50 in test [1] was 1 to 10 nM; against mu opioid receptor (MOR) it was 100 to 1000 nM.

In the case of `CCc1cc(C#N)c2nc(N3CCC(N4CCOC[C@@H]4C)CC3)c(-c3ccn(C)n3)c(C)c2c1` [Compound 81], in test [1], the “Selectivity (MOR/KOR)” value is “++ (between 10- and 100-fold selectivity)”; the IC50 lay in the range of 10 to 100 nM. Moreover, the IC50 against mu opioid receptor (MOR) is more than 1000 nM.

With `CCc1cc(C#N)c2nc(N3CCC(N4CCOC[C@H]4C)CC3)c(-c3ccn(C)n3)c(C)c2c1` [Compound 82], in test [1], the “Selectivity (MOR/KOR)” value was “++ (between 10- and 100-fold selectivity)”; the IC50 fell in the range of 10 to 100 nM. The molecule also came in with a concentration for half-maximal inhibition (IC50) against mu opioid receptor (MOR) of more than 1000 nM.

For the molecule `CCc1cc(F)c2nc(N3CCC(N[C@H]4CCOC4)CC3)c(-c3cc(C(F)(F)F)n(C)n3)c(C)c2c1` [Compound 84], in test [1], the “Selectivity (MOR/KOR)” value is “+++ (between 100- to 1000-fold selective)” and the IC50 was in the range of 10 to 100 nM. On mu opioid receptor (MOR), the IC50 is more than 1000 nM.

For `CCc1cc(F)c2nc(N3CCC(N[C@@H]4CCOC4)CC3)c(-c3cc(C(F)(F)F)n(C)n3)c(C)c2c1` [Compound 85], in test [1], the “Selectivity (MOR/KOR)” value is recorded as “+++ (between 100- to 1000-fold selective)” and the half-inhibitory concentration (IC50) is 10 to 100 nM. The same molecule yielded an IC50 against mu opioid receptor (MOR) of more than 1000 nM.

`CCc1cc(-c2ccnn2C)c2nc(N3CCC(N[C@H]4CCOC4)CC3)c(-c3ccn(C)n3)c(C)c2c1` [Compound 86]: in test [1], the “Selectivity (MOR/KOR)” value is reported as “+++ (between 100- to 1000-fold selective)” and the half-maximal inhibitory concentration (IC50) is less than 1 nM. On mu opioid receptor (MOR), the half-maximal inhibitory concentration (IC50) is more than 1000 nM.

`CCc1cc(-c2ccnn2C)c2nc(N3CCC(N[C@@H]4CCOC4)CC3)c(-c3ccn(C)n3)c(C)c2c1` [Compound 87]: the “Selectivity (MOR/KOR)” value in test [1] is “+++ (between 100- to 1000-fold selective)”. Besides, the IC50 in test [1] was less than 1 nM; at mu opioid receptor (MOR), 100 to 1000 nM.

The values above are taken from US20260115185A1, “QUINOLINE DERIVATIVES WHICH ACT AS KAPPA-OPIOID RECEPTOR ANTAGONISTS” (The Scripps Research Institute, priority 2023, published 2026).
